# Data taken from US12729377B2, “RNAi agents and compositions for inhibiting expression of angiopoietin-like 3 (ANGPTL3), and methods of use” (Arrowhead Pharmaceuticals, Inc., priority 2017, dated 2026).
# Columns and labels:
# Format in all cases: in vivo, LDLR KO mice
# ANGPTL3 gene [1] = test: Example 14: RNAi agent and statin, serum total cholesterol in LDLR knockout mice; conditions: for Avg Total Chol normalized to pre-treatment: no injection
# Source text: (§1) To evaluate the effect of co-administration of RNAi agents and statins in a disease model, LDLR KO mice were commercially obtained (The Jackson Laboratory). For three weeks prior to the onset of the study, forty-one (41) male 7 to 8 week old LDLR KO mice were placed on a high fat (“western”) diet (Teklad Custom Diets TD.88137), and remained on that diet throughout the duration of the study. Pre-dose serum samples were taken on study Day 1 after a four hour fast. The dosing regimen for the study is recited in the following Table 72:
# (§2) • Mice were treated at 40 mg/kg for the first 11 days, then switched to 20 mg/kg thereafter.
# (§3) The vehicle used for the oral gavage in the study was a 1:1 mixture of Ora-Plus®: Ora-Sweet® solution, which were acquired commercially. For the preparation of the atorvastatin oral gavage administrations, the respective desired dose of atorvastatin was first dissolved in sterile water (0.3 mL water per 1 mL of desired formulation) and vortexed until smooth, followed by the addition of a mixture of 1:1 Ora-Plus®: Ora-Sweet® solution (0.7 mL vehicle per 1 mL of desired formulation) and vortexed. On day 1 and for each day thereafter an oral gavage dose was administered for each of the Groups except for Group 2. On Day 23, Groups 1, 2, 3, and 4 received a single subcutaneous administration of 2.5 mg/kg dose ([…] solution) of an ANGPTL3 RNAi agent in D5W (dextrose in 5% water), or vehicle control (D5W) with no RNAi agent.
# (§4) The RNAi agent tested (AD05488) included a modified sequence and an N-acetyl-galactosamine-containing targeting ligand conjugated to the 5′ terminal end of the sense strand. (See Tables 3, 4, and 5 for modified sequences and targeting ligand structures). The injections were performed between the skin and muscle (i.e. subcutaneous injections) into the loose skin over the neck and shoulder area. Serum was collected on days 8, 15, 22 (pre-RNAi agent injection), 29, 36, 43, and 50. LDLR KO mice were fasted for four hours prior to each collection.
# (§5) ANGPTL3 protein levels in serum were measured by ELISA assay (R&D Systems), according to the manufacturer's recommendations. Among other biomarkers, triglycerides, total cholesterol, and low-density lipoprotein (LDL) in serum were measured on a Cobas® Integra 400 (Roche Diagnostics), according to the manufacturer's recommendations.
# (§6) The ANGPTL3 protein levels, triglyceride levels, total cholesterol levels, HDL levels, and LDL levels for each animal were normalized. For normalization, respective levels of ANGPTL3 protein, TG, total cholesterol, or LDL for each animal at a time point was divided by the pre-treatment level of expression in that animal (in this case pre-dose levels on Day 1) to determine the ratio of expression “normalized to pre-treatment.” Data from the study set forth in this Example are shown in the following Tables 73-76: […]
# ANGPTL3 protein = test: Example 14: RNAi agent and statin, serum ANGPTL3 protein by ELISA in LDLR knockout mice; conditions: no injection
# Source text: as §1, §2, §3, §4, §5, §6
# ANGPTL3 gene [2] = test: Example 14: RNAi agent and statin, serum triglycerides in LDLR knockout mice; conditions: for Avg TG normalized to pre-treatment: no injection
# Source text: as §1, §2, §3, §4, §5, §6
# ANGPTL3 gene [3] = test: Example 14: RNAi agent and statin, serum LDL in LDLR knockout mice; conditions: for Avg LDL normalized to pre-treatment: no injection
# Source text: as §1, §2, §3, §4, §5, §6
# [4] = Group 5: 10 mg/kg daily oral gavage atorvastatin, Day 8
# [5] = Group 5: 10 mg/kg daily oral gavage atorvastatin, Day 15
# [6] = Group 5: 10 mg/kg daily oral gavage atorvastatin, Day 22
# [7] = Group 5: 10 mg/kg daily oral gavage atorvastatin, Day 29
# [8] = Group 5: 10 mg/kg daily oral gavage atorvastatin, Day 36
# [9] = Group 5: 10 mg/kg daily oral gavage atorvastatin, Day 43
# [10] = Group 5: 10 mg/kg daily oral gavage atorvastatin, Day 50
# [11] = Group 6: 20 mg/kg* daily oral gavage atorvastatin (40 mg/kg first 11 days), Day 8
# [12] = Group 6: 20 mg/kg* daily oral gavage atorvastatin (40 mg/kg first 11 days), Day 15
# [13] = Group 6: 20 mg/kg* daily oral gavage atorvastatin (40 mg/kg first 11 days), Day 22
# [14] = Group 6: 20 mg/kg* daily oral gavage atorvastatin (40 mg/kg first 11 days), Day 29
# [15] = Group 6: 20 mg/kg* daily oral gavage atorvastatin (40 mg/kg first 11 days), Day 36
# [16] = Group 6: 20 mg/kg* daily oral gavage atorvastatin (40 mg/kg first 11 days), Day 43
# [17] = Group 6: 20 mg/kg* daily oral gavage atorvastatin (40 mg/kg first 11 days), Day 50
# [18] = daily atorvastatin by oral gavage, LDLR KO mice on high fat diet
structure (smiles),measurement,setting,value
"CC(C)c1c(C(=O)Nc2ccccc2)c(-c2ccccc2)c(-c2ccc(F)cc2)n1CC[C@@H](O)C[C@@H](O)CC(=O)O [atorvastatin, reference compound]",Avg Total Chol normalized to pre-treatment,ANGPTL3 gene [1]; [4],0.821
same,Avg Total Chol normalized to pre-treatment,ANGPTL3 gene [1]; [5],0.774
same,Avg Total Chol normalized to pre-treatment,ANGPTL3 gene [1]; [6],0.980
same,Avg Total Chol normalized to pre-treatment,ANGPTL3 gene [1]; [7],0.943
same,Avg Total Chol normalized to pre-treatment,ANGPTL3 gene [1]; [8],1.105
same,Avg Total Chol normalized to pre-treatment,ANGPTL3 gene [1]; [9],0.998
same,Avg Total Chol normalized to pre-treatment,ANGPTL3 gene [1]; [10],0.987
same,Avg Total Chol normalized to pre-treatment,ANGPTL3 gene [1]; [11],0.586
same,Avg Total Chol normalized to pre-treatment,ANGPTL3 gene [1]; [12],0.620
same,Avg Total Chol normalized to pre-treatment,ANGPTL3 gene [1]; [13],0.767
same,Avg Total Chol normalized to pre-treatment,ANGPTL3 gene [1]; [14],0.761
same,Avg Total Chol normalized to pre-treatment,ANGPTL3 gene [1]; [15],0.825
same,Avg Total Chol normalized to pre-treatment,ANGPTL3 gene [1]; [16],0.767
same,Avg Total Chol normalized to pre-treatment,ANGPTL3 gene [1]; [17],0.807
same,reduction in total cholesterol,ANGPTL3 gene [1]; [18],23-40%
same,Avg ANGPTL3 normalized to pre-treatment,ANGPTL3 protein; [4],1.577
same,Avg ANGPTL3 normalized to pre-treatment,ANGPTL3 protein; [5],1.839
same,Avg ANGPTL3 normalized to pre-treatment,ANGPTL3 protein; [6],1.693
same,Avg ANGPTL3 normalized to pre-treatment,ANGPTL3 protein; [7],1.764
same,Avg ANGPTL3 normalized to pre-treatment,ANGPTL3 protein; [8],1.851
same,Avg ANGPTL3 normalized to pre-treatment,ANGPTL3 protein; [9],1.758
same,Avg ANGPTL3 normalized to pre-treatment,ANGPTL3 protein; [10],1.878
same,Avg ANGPTL3 normalized to pre-treatment,ANGPTL3 protein; [11],1.553
same,Avg ANGPTL3 normalized to pre-treatment,ANGPTL3 protein; [12],1.924
same,Avg ANGPTL3 normalized to pre-treatment,ANGPTL3 protein; [13],1.871
same,Avg ANGPTL3 normalized to pre-treatment,ANGPTL3 protein; [14],1.767
same,Avg ANGPTL3 normalized to pre-treatment,ANGPTL3 protein; [15],1.981
same,Avg ANGPTL3 normalized to pre-treatment,ANGPTL3 protein; [16],1.935
same,Avg ANGPTL3 normalized to pre-treatment,ANGPTL3 protein; [17],1.847
same,Avg TG normalized to pre-treatment,ANGPTL3 gene [2]; [4],0.667
same,Avg TG normalized to pre-treatment,ANGPTL3 gene [2]; [5],0.601
same,Avg TG normalized to pre-treatment,ANGPTL3 gene [2]; [6],1.086
same,Avg TG normalized to pre-treatment,ANGPTL3 gene [2]; [7],0.803
same,Avg TG normalized to pre-treatment,ANGPTL3 gene [2]; [8],0.958
same,Avg TG normalized to pre-treatment,ANGPTL3 gene [2]; [9],0.862
same,Avg TG normalized to pre-treatment,ANGPTL3 gene [2]; [10],0.977
same,Avg TG normalized to pre-treatment,ANGPTL3 gene [2]; [11],0.477
same,Avg TG normalized to pre-treatment,ANGPTL3 gene [2]; [12],0.362
same,Avg TG normalized to pre-treatment,ANGPTL3 gene [2]; [13],0.505
same,Avg TG normalized to pre-treatment,ANGPTL3 gene [2]; [14],0.552
same,Avg TG normalized to pre-treatment,ANGPTL3 gene [2]; [15],0.598
same,Avg TG normalized to pre-treatment,ANGPTL3 gene [2]; [16],0.603
same,Avg TG normalized to pre-treatment,ANGPTL3 gene [2]; [17],0.677
same,reduction in triglycerides,ANGPTL3 gene [2]; [18],40-60%
same,Avg LDL normalized to pre-treatment,ANGPTL3 gene [3]; [4],0.778
same,Avg LDL normalized to pre-treatment,ANGPTL3 gene [3]; [5],0.695
same,Avg LDL normalized to pre-treatment,ANGPTL3 gene [3]; [6],0.861
same,Avg LDL normalized to pre-treatment,ANGPTL3 gene [3]; [7],0.881
same,Avg LDL normalized to pre-treatment,ANGPTL3 gene [3]; [8],0.996
same,Avg LDL normalized to pre-treatment,ANGPTL3 gene [3]; [9],0.929
same,Avg LDL normalized to pre-treatment,ANGPTL3 gene [3]; [10],0.872
same,Avg LDL normalized to pre-treatment,ANGPTL3 gene [3]; [11],0.490
same,Avg LDL normalized to pre-treatment,ANGPTL3 gene [3]; [12],0.556
same,Avg LDL normalized to pre-treatment,ANGPTL3 gene [3]; [13],0.687
same,Avg LDL normalized to pre-treatment,ANGPTL3 gene [3]; [14],0.700
same,Avg LDL normalized to pre-treatment,ANGPTL3 gene [3]; [15],0.716
same,Avg LDL normalized to pre-treatment,ANGPTL3 gene [3]; [16],0.689
same,Avg LDL normalized to pre-treatment,ANGPTL3 gene [3]; [17],0.687
same,reduction in LDL,ANGPTL3 gene [3]; [18],30-45%
